Measurements published in patent publication US6403788B1, “Non-genotoxic metalloporphyrins as synthetic catalytic scavengers of reactive oxygen species” (Eukarion, Inc., priority 2000, dated 2002).

How the values were obtained:
[1] = Catalase turnover assay, total hydrogen peroxide consumed before inactivation; type: biochemical; conditions: to completion, 15.8 μM compound, 1582 μM hydrogen peroxide, 5 mM Na phosphate pH 7.4
Experimental: Catalase activity was measured by incubating the sample compound with hydrogen peroxide and determining the amount of hydrogen peroxide remaining after a period of time using a colorimetric peroxidase-coupled assay method. 10 μM sample compound and 100 μM hydrogen peroxide in 40 mM sodium phosphate pH 7.4 were incubated together at ambient temperature in a multi-well plate. After the desired reaction period had elapsed, 20 μl of peroxidase/ABTS reagent was added (peroxidase/ABTS reagent contained 100 μl of 50 mM Na phosphate, pH 7.4, 1 mg horseradish peroxidase (1310 U/mg) and […]). After five minutes, absorbance at 750 nm was determined. The amount of hydrogen peroxide remaining was calculated based on a standard curve. To compare rates of catalase reaction, the amount of hydrogen peroxide consumed at 20 minutes was determined (See table III). It was also of interest to determine the total number of turnovers completed by the compound before inactivation by hydrogen peroxide. This was assayed under similar conditions, except that 15.8 μM compound was combined with 1582 μM hydrogen peroxide in 5 mM Na phosphate, pH 7.4. Reactions were allowed to proceed to completion and then the amount of hydrogen peroxide remaining was determined as described above. Results showing […] in the turnover assay (nmoles hydrogen peroxide per nmole compound) are also shown in Table III.

[2] = Peroxidase activity, ABTS oxidation; type: biochemical; conditions: 10 μM compound, 200 μM hydrogen peroxide, 500 μM ABTS, pH 8.1, 740 nm
Experimental: Peroxidase activity was measured by incubating 10 μM compound, 200 μM hydrogen peroxide and 500 μM ABTS in 50 mM sodium phosphate, pH 8.1. The rate of ABTS oxidation was monitored at 740 nm and initial rates (change in absorbance per min.) determined.

[3] = Superoxide dismutase activity, xanthine-xanthine oxidase / cytochrome C; type: biochemical; conditions: reciprocal of IC50; xanthine 60 μM, xanthine oxidase 0.009 units/ml, cytochrome C 27.8 μM
Experimental: Superoxide Dismutase Activity was measured by incubating the compound with a superoxide generating system (Xanthine, 60 μM-Xanthine Oxidase, 0.009 units/ml) and a detector molecule (Cytochrome C, 27.8 μM). Upon reacting with a molecule of superoxide, Cytochrome C undergoes a spectrum-shift which can be detected as an increase in absorbance at 550 nm. In this assay procedure, the reactant concentrations were adjusted to give a reaction rate close to 0.1 AU/min. at 2-3 min. after the reaction began. Addition of compounds with Superoxide Dismutase activity reduce the rate of absorbance change. Compounds were assayed at several concentrations (typically at 0, 2, 4, and 8 μM) and the resulting rates were graphed and fitted to a linear regression formula. The linear regression formula was then solved to determine the concentration of compound required to reduce the reaction rate to 50% of the rate without compound present (IC50).

[4] = tested on: ΦX 174 DNA Plasmid (Form I); test: Cleavage of ΦX 174 DNA plasmid (form I), activation with H2O2; type: biochemical, phage ΦX 174; conditions: for S (single-strand breaks per DNA molecule) / form % I / form % II / form % III: DNA 3.5 nM, H2O2 1 mM
Text: The DNA cleavage activity was quantified in terms of number of single-strand breaks per DNA molecule according to the equation […], Io=% form I (supercoiled DNA) in the DNA control, and I=% form I in the experiment (see Bernadou et al, Biochemistry, 28: 7268-7275, (1989)). This assay is very sensitive and is able to detect very low levels of DNA activity. S values less than S=1.0 are indicative of very low DNA cleavage activity when the compounds are at a concentration of equal to or less than 1000 nM and KHSO5 is present at a concentration of equal to or less than 100 μM.
ΦX 174 DNA digestion conditions for standard experiments were as follows: commercially available DNA was diluted to 50 μg/mL in phosphate buffer (10 mM, pH 7.5). The reaction involved 5 μL of ΦX 174 DNA (50 μg/mL, 74.8 μM in base pairs), 5 μL of 40 mM phosphate buffer, pH 7.5 with 400 mM NaCl, 5 μL of metalloporphyrin in double-distilled water or 5 μL of iron-bleomycin complex in double-distilled water, and 5 μL of KHSO5 or 5 μL of H2O2 or 5 μL of ascorbate in double-distilled water. Preincubation of DNA and metalloporphyrins or iron-bleomycin complex was performed for about 15 min. The digestion time in the presence of KHSO5 was 10 min, of H2O2 was 30 min and of ascorbate was 30 min at 20° C. DNA cleavage was monitored by agarose gel electrophoresis. Reactions with KHSO5 were first quenched by 2 μL of 100 mM Hepes buffer, pH 8. In all cases, reactions were quenched by 5 μL of a stopping reagent. The stopping reagent consisted of 250 mM Hepes buffer, pH 7.4, containing 75% glycerol and 0.05% bromophenol blue. Reaction mixtures were then run in 0.8% agarose slab horizontal gel containing ethidium bromide […], at constant current (25 mA for 15h), in 89 mM Tris-borate buffer and 2.5 mM EDTA pH 8.3. Bands were located by WV light (254 nm), photographed, and quantitated by microdensitometry. The correction coefficient 1.47±0.30 was used for decreased stainability of form I DNA vs form II DNA and form III DNA.

CC[NH+](CC)CCNS(=O)(=O)c1c(C)cc(C)c(C2=C3C=CC4=[N+]3[Fe-]35[n]6c2ccc6C(c2c(C)cc(C)c(S(=O)(=O)NCC[NH+](CC)CC)c2C)=C2C=CC(=[N+]23)C(c2c(C)cc(C)c(S(=O)(=O)NCC[NH+](CC)CC)c2C)=c2ccc([n]25)=C4c2c(C)cc(C)c(S(=O)(=O)NCC[NH+](CC)CC)c2C)c1C.[Cl-].[Cl-].[Cl-].[Cl-].[Cl-] [Structural Formula V, meso-tetrakis[3-(N-(2-(N,N-diethylammonio)ethyl)aminosulfonyl)-2,4,6-trimethylphenyl]porphyrinato diaqua-iron (III) pentachloride]
CATALASE** H2O2 Consumption [1]: 36.1 nmole H2O2/nmole Structural Formula compound
PEROXIDASE Initial Rate [2]: 0.0443 change in absorbance per min.
Cyt C SOD 1/(IC50, μM) [3]: 0.067 µM⁻¹
S (single-strand breaks per DNA molecule) ([4]; compound 10 nM): 0.01 SSBs
form % I ([4]; compound 10 nM): 94%
form % II ([4]; compound 10 nM): 6%
form % III ([4]; compound 10 nM): 0%
S (single-strand breaks per DNA molecule) ([4]; compound 100 nM): 0 SSBs
form % I ([4]; compound 100 nM): 95%
form % II ([4]; compound 100 nM): 5%
form % III ([4]; compound 100 nM): 0%
S (single-strand breaks per DNA molecule) ([4]; compound 1 μM): 0.16 SSBs
form % I ([4]; compound 1 μM): 84%
form % II ([4]; compound 1 μM): 16%
form % III ([4]; compound 1 μM): 0%
DNA cleavage activity in H2O2 medium ([4]; H2O2 medium): does not exhibit significant DNA cleavage activity
